Data as given in the supplement of paper PMC10307832.

Tests used:
Assay in all cases: relative viability (nuclei count vs DMSO), 5 days (fraction); higher = more cells survive
HCC-366 = system: HCC-366
Outline: (§1)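 Relative viability equals treated-well nuclei counts divided by vehicle-well nuclei counts. Counts came from 4× images of lung cancer cell lines grown in 1536-well plates for 5 days after pin-tool dosing on the day after seeding. Dosing used one drug alone or a fixed anchor-drug dose plus five library-drug doses (not always all listed) in √10 steps, and values are medians of duplicate plates.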

NCI-H1734 = system: NCI-H1734
Outline: as §1

HCC-15 = system: HCC-15
Outline: as §1

LOU-NH91 = system: LOU-NH91
Outline: as §1

NCI-H838 = system: NCI-H838
Outline: as §1

NCI-H2085 = system: NCI-H2085
Outline: as §1

NCI-H1651 = system: NCI-H1651
Outline: as §1

NCI-H1650 = system: NCI-H1650
Outline: as §1

NCI-H1437 = system: NCI-H1437
Outline: as §1

BEN = system: BEN
Outline: as §1

NCI-H1355 = system: NCI-H1355
Outline: as §1

NCI-H441 = system: NCI-H441
Outline: as §1

## COc1cc(N2CCC(C(N)=O)CC2)ccc1Nc1nc(N)c(Cl)c(Nc2ccccc2S(=O)(=O)C(C)C)n1 [HG-5-88-01] + COc1cc2c(Oc3ccc(NC(=O)C4(C(=O)Nc5ccc(F)cc5)CC4)cc3F)ccnc2cc1OCCCN1CCOCC1 [Foretinib] (partner 0.25 µM)
HCC-366; first compound 1.265 µM
  relative viability: 0.856
HCC-366; first compound 4 µM
  relative viability: 0.45
NCI-H1734; first compound 0.04 µM
  relative viability: 1.05
NCI-H1734; first compound 0.1265 µM
  relative viability: 0.8
NCI-H1734; first compound 0.4 µM
  relative viability: 0.793
NCI-H1734; first compound 1.265 µM
  relative viability: 0.576
NCI-H1734; first compound 4 µM
  relative viability: 0.644
HCC-15; first compound 0.04 µM
  relative viability: 1.02
HCC-15; first compound 0.1265 µM
  relative viability: 1.01
HCC-15; first compound 0.4 µM
  relative viability: 0.946
HCC-15; first compound 1.265 µM
  relative viability: 0.867
HCC-15; first compound 4 µM
  relative viability: 0.703
LOU-NH91; first compound 0.04 µM
  relative viability: 0.905
LOU-NH91; first compound 0.1265 µM
  relative viability: 0.902
LOU-NH91; first compound 0.4 µM
  relative viability: 0.872
LOU-NH91; first compound 1.265 µM
  relative viability: 0.455
LOU-NH91; first compound 4 µM
  relative viability: 0.672
NCI-H838; first compound 0.04 µM
  relative viability: 0.939
NCI-H838; first compound 0.1265 µM
  relative viability: 1.02
NCI-H838; first compound 0.4 µM
  relative viability: 0.797
NCI-H838; first compound 1.265 µM
  relative viability: 0.814
NCI-H838; first compound 4 µM
  relative viability: 0.893
NCI-H2085; first compound 0.04 µM
  relative viability: 0.852
NCI-H2085; first compound 0.1265 µM
  relative viability: 0.947
NCI-H2085; first compound 0.4 µM
  relative viability: 0.907
NCI-H2085; first compound 1.265 µM
  relative viability: 0.704
NCI-H2085; first compound 4 µM
  relative viability: 0.807
NCI-H1651; first compound 0.04 µM
  relative viability: 0.793
NCI-H1651; first compound 0.1265 µM
  relative viability: 0.922
NCI-H1651; first compound 0.4 µM
  relative viability: 0.998
NCI-H1651; first compound 1.265 µM
  relative viability: 0.762
NCI-H1651; first compound 4 µM
  relative viability: 1.02
NCI-H1650; first compound 0.04 µM
  relative viability: 1.11
NCI-H1650; first compound 0.1265 µM
  relative viability: 1.2
NCI-H1650; first compound 0.4 µM
  relative viability: 1.26
NCI-H1650; first compound 1.265 µM
  relative viability: 0.751
NCI-H1650; first compound 4 µM
  relative viability: 0.836
NCI-H1437; first compound 0.04 µM
  relative viability: 1.27
NCI-H1437; first compound 0.1265 µM
  relative viability: 1.28
NCI-H1437; first compound 0.4 µM
  relative viability: 0.912
NCI-H1437; first compound 1.265 µM
  relative viability: 1.2
NCI-H1437; first compound 4 µM
  relative viability: 1.37
BEN; first compound 0.04 µM
  relative viability: 0.399
BEN; first compound 0.1265 µM
  relative viability: 0.702
BEN; first compound 0.4 µM
  relative viability: 0.444
BEN; first compound 1.265 µM
  relative viability: 0.62
BEN; first compound 4 µM
  relative viability: 0.448
NCI-H1355; first compound 0.04 µM
  relative viability: 1.01
NCI-H1355; first compound 0.1265 µM
  relative viability: 1.05
NCI-H1355; first compound 0.4 µM
  relative viability: 0.929
NCI-H1355; first compound 1.265 µM
  relative viability: 0.96
NCI-H1355; first compound 4 µM
  relative viability: 0.696
NCI-H441; first compound 0.04 µM
  relative viability: 0.889
NCI-H441; first compound 0.1265 µM
  relative viability: 1.06
NCI-H441; first compound 0.4 µM
  relative viability: 1
NCI-H441; first compound 1.265 µM
  relative viability: 0.771
NCI-H441; first compound 4 µM
  relative viability: 0.839
